The results in this text go back to patent US12427210B2, “Compounds comprising a fibroblast activation protein ligand and use thereof” (priority 2019, dated 2025).

Assay [1] has as its target serine protease NS3 (a.a. 3-181) from Hepatitis C virus genotype 2a (Hepatitis C virus genotype 2a, UniProt Q99IB8). The experiment in a line: biochemical. The following applies: read-out: Percentage inhibition (%).
A further assay addresses CB1 (h) (Homo sapiens, UniProt P21554). The assay is described as follows: biochemical. The following applies: read-out: % Inhibition of Specific Binding.
Another assay concerns the target CB2 (h) (Homo sapiens, UniProt P34972). The assay is described as follows: biochemical. To be noted: read-out: % Inhibition of Specific Binding.
A further assay addresses T1, Deubiquitinase OTUD6B (Homo sapiens, UniProt Q8N6M0).
T1 sequence (Q8N6M0 1-293): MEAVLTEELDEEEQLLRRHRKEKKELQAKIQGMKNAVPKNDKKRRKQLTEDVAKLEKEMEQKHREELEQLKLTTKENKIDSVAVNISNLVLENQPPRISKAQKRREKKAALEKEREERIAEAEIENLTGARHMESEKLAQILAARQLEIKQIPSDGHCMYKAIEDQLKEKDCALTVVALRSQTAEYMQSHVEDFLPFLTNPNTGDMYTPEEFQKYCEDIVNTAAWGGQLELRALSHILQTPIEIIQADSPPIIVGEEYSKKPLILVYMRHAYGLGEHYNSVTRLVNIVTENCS
The assay is described as follows: biochemical. To be noted: read-out: Percentage inhibition (%).

The target of another assay is T2, Cathepsin F (Homo sapiens, UniProt Q9UBX1).
T2 sequence (Q9UBX1 271-484): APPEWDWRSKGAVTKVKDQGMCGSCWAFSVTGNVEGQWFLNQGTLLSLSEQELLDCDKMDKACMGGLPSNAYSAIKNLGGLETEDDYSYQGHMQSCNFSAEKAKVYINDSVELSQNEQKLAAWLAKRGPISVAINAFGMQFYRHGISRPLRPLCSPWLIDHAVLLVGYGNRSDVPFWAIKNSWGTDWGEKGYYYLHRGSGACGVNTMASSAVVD
The assay is described as follows: biochemical. The following applies: read-out: Percentage inhibition (%).

The next assay concerns the target alpha 2A (h) (Homo sapiens, UniProt P08913). The assay is described as follows: biochemical. The following applies: read-out: % Inhibition of Specific Binding.
For assay [2], the system named is serine protease NS3 (a.a. 3-181) from Hepatitis C virus genotype 1a (mutant D168V).
A further assay concerns KV channel. The following applies: 10 μM.
A further assay has as its target T3, alpha 1A (h) (Homo sapiens, UniProt P35348).
T3 sequence (P35348 1-466): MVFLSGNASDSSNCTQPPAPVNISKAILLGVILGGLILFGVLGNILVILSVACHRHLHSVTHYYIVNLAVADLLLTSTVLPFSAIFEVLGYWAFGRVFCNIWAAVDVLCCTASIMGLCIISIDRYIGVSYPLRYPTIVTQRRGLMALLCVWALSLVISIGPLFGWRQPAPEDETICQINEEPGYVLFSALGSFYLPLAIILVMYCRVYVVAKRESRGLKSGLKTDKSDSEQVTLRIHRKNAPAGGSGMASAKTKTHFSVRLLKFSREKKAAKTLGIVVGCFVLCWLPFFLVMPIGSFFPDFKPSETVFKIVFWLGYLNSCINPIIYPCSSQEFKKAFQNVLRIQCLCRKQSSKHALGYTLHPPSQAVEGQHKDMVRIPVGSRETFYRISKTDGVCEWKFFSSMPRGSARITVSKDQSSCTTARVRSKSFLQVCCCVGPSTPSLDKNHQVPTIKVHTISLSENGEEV
The experiment in a line: biochemical. The following applies: read-out: % Inhibition of Specific Binding.

A further assay deals with Cathepsin S (Homo sapiens, UniProt P25774). The experiment in a line: biochemical. To be noted: read-out: Percentage inhibition (%).
In assay [3] the target is T4, Matrix metalloprotease 9 (mutant Q279R) (Homo sapiens, UniProt P14780, Q279R).
T4 sequence (P14780 94-707 Q279R): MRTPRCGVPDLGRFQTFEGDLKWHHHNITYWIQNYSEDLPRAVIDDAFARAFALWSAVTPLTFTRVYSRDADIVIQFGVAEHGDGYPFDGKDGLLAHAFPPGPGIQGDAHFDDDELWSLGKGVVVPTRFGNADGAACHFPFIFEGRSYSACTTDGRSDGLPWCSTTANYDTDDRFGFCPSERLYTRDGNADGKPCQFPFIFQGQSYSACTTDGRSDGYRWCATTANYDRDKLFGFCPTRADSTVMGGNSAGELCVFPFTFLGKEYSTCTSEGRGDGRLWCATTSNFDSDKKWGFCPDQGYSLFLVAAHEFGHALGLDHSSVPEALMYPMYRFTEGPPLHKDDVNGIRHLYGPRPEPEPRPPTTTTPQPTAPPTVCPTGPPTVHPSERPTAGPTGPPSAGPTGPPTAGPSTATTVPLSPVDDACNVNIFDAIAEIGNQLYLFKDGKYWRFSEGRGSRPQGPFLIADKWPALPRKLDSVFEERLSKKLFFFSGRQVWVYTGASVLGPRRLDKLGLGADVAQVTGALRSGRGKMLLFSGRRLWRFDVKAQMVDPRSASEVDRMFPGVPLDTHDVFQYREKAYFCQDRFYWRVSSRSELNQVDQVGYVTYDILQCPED
The assay is described as follows: biochemical. To be noted: read-out: Percentage inhibition (%).

A further assay deals with Activated Protein C (Homo sapiens, UniProt P04070). The experiment in a line: biochemical. The following applies: read-out: Percentage inhibition (%).
Assay [4] relates to Ca2+ channel (L, dihydropyridine site). To be noted: 10 μM.
A further assay relates to BZD (central). The following applies: 10 μM.
The target of another assay is T5, Matrix metalloprotease1 (Homo sapiens, UniProt P03956).
T5 sequence (P03956 100-469): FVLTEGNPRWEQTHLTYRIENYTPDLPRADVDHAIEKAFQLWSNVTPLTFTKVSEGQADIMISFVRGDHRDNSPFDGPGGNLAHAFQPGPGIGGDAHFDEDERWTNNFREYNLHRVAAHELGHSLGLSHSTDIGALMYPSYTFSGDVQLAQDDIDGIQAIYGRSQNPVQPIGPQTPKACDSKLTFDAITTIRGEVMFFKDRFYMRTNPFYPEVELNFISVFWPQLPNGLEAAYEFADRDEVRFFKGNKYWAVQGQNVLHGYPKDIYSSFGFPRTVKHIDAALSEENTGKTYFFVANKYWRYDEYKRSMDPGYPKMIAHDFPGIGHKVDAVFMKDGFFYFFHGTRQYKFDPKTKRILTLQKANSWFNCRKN
The experiment in a line: biochemical. The following applies: read-out: Percentage inhibition (%).

Like-named read-outs stand apart in the source and are kept apart here. Numbered stars: 1 amine (or outer) side, 2 acyl side, 3 side chain; on linkers, the order of the positions; unused ones are H or OH. Bridge positions count the residues as written; N and C are the ends. Peptide text beside a SMILES is read from it. * marks the point of attachment. X1 = O=C(O)CN1CCN(CC(=O)O)CCN(CC(=O)N2CCN(Cc3cc(C[*:1])cc(C[*:2])c3)CC2)CCN(CC(=O)O)CC1; Hexanoyl = CCCCCC(=O)*

By inhibition is commonly meant the drop in the measured response relative to a control, in per cent.

Sequence of Cathepsin S (P25774 115-331): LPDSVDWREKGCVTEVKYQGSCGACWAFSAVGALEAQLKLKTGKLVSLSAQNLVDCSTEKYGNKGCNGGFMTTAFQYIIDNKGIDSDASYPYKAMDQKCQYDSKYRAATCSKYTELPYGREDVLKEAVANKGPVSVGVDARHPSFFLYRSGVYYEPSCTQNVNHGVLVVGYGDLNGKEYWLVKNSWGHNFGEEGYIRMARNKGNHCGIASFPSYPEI
Sequence of serine protease NS3 (a.a. 3-181) from Hepatitis C virus genotype 2a (Q99IB8 1033-1211 limits assumed, other chains not shown): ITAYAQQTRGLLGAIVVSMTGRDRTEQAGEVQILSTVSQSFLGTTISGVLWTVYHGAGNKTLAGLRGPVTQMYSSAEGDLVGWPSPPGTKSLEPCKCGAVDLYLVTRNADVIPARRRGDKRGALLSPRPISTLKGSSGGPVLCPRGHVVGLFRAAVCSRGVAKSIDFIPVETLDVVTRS
Sequence of Activated Protein C (P04070 212-461 limits assumed): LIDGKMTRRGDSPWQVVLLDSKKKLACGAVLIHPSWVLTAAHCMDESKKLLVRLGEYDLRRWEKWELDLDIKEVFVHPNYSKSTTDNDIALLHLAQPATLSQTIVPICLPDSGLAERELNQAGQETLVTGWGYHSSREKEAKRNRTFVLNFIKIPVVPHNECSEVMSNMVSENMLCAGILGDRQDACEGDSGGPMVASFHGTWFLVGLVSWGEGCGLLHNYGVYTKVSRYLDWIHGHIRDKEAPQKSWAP
Sequence of Activated Protein C (P04070 43-197 partner limits assumed): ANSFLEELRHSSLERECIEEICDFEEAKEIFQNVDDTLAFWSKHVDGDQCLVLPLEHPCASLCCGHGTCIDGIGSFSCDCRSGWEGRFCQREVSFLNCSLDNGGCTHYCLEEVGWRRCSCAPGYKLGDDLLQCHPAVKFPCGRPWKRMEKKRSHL
Sequence of alpha 2A (h) (P08913 whole entry): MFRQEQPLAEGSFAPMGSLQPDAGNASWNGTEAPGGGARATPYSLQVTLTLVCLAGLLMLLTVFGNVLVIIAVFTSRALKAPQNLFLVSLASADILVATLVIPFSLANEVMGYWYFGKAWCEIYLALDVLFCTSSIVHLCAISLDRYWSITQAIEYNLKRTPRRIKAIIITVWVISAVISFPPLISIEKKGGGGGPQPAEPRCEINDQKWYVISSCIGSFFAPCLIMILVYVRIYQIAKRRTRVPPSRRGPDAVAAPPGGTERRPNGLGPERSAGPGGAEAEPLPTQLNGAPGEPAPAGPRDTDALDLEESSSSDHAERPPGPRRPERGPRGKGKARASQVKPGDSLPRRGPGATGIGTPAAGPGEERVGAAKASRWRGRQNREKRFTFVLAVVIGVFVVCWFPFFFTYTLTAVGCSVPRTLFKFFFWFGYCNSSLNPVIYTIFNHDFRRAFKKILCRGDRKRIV
Sequence of CB2 (h) (P34972 whole entry): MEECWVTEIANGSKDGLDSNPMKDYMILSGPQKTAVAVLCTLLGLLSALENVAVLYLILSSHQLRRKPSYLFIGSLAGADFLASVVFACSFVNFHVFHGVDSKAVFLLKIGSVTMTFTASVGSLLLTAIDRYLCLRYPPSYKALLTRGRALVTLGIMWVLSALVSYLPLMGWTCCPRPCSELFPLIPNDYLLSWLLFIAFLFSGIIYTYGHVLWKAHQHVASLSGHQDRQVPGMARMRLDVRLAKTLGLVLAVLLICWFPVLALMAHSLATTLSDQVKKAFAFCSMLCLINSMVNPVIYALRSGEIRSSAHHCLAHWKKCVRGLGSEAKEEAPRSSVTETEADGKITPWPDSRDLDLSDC
Sequence of CB1 (h) (P21554 whole entry): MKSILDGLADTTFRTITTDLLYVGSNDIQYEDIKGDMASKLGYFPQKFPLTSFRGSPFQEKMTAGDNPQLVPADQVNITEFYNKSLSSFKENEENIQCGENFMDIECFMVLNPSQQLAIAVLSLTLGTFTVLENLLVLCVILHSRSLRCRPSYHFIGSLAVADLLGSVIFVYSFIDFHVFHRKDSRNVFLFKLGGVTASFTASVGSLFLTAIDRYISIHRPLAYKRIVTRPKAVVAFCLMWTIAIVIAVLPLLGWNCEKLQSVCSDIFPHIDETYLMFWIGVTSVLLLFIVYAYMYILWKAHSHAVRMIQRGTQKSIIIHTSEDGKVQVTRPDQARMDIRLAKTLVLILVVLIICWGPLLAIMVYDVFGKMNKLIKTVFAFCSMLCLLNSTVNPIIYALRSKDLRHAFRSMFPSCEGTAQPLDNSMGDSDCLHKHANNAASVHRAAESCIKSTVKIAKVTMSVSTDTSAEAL

For the molecule `CCCCCC(=O)N[C@H]1CSCc2cc(cc(CN3CCN(C(=O)CN4CCN(CC(=O)O)CCN(CC(=O)O)CCN(CC(=O)O)CC4)CC3)c2)CSC[C@@H](C(=O)N[C@@H](CC(=O)O)C(N)=O)NC(=O)[C@H](Cc2ccccc2)NC(=O)[C@H](CCC(N)=O)NC(=O)[C@H]([C@@H](C)O)NC(=O)[C@@H]2CCCN2C(=O)[C@@H]2CCCN2C1=O` [Compound 3BP-3407, Hex-[Cys(tMeBn(DOTA-PP))-Pro-Pro-Thr-Gln-Phe-Cys]-Asp-NH2] (Hexanoyl-CPPTQFCD-NH2; linker 1-7 via X1), the inhibition at 1 µM in assay [1] is 0%; at Deubiquitinase OTUD6B it was 2%; on Cathepsin F it was -3%; on Cathepsin S it was 3%; in [3], 3%; on Activated Protein C, 5%. Moreover, the inhibition at 1 µM on Matrix metalloprotease1 is -1%. The inhibition at 10 µM in assay [1] is -2%; on CB1 (h) it was 5%; on CB2 (h), 2%; on Deubiquitinase OTUD6B it was 15%; on Cathepsin F, -24%; at alpha 2A (h), -9%. For the same molecule, the inhibition at 10 µM on alpha 1A (h) amounted to 2%; at Cathepsin S it was 18%; in assay [3] it was 2%; at Activated Protein C, 8%; on Matrix metalloprotease1 it was 2%. Moreover, the results for the “Percentage inhibition (%)” value in assay [2] (1 μM) and in assay [2] (10 μM) were 1% and −68%, respectively. The entries for the “% Inhibition of Specific Binding” value (in the assay on KV channel; in [4]; with BZD (central)) were −5%, 42% and −9%, respectively.
For `CCCCCC(=O)N[C@H]1CSCc2cc(CSCCNC(=O)CN3CCN(CC(=O)O)CCN(CC(=O)O)CCN(CC(=O)O)CC3)cc(c2)CSC[C@@H](C(=O)O)NC(=O)[C@H](Cc2ccccc2)NC(=O)[C@H](CCC(N)=O)NC(=O)[C@H]([C@@H](C)O)NC(=O)[C@@H]2CCCN2C(=O)[C@@H]2CCCN2C1=O` [Compound 3BP-3554, Hex-[Cys(tMeBn(DOTA-AET))-Pro-Pro-Thr-Gln-Phe-Cys]-OH], the inhibition at 1 µM in assay [1] is -13%; on Deubiquitinase OTUD6B, 0%; on Cathepsin F, -23%; on Cathepsin S, -10%; in assay [3] it was 3%; at Activated Protein C, -11%. Besides, the inhibition at 1 µM at Matrix metalloprotease1 worked out at 1%. Further, the inhibition at 10 µM in assay [1] was -40%; on CB1 (h), -7%; on CB2 (h), -5%; on Deubiquitinase OTUD6B it was 0%; on Cathepsin F, -25%; on alpha 2A (h), 2%. Besides, the inhibition at 10 µM on alpha 1A (h) was -12%; at Cathepsin S, -23%; in assay [3] it was 2%; on Activated Protein C, 1%; on Matrix metalloprotease1, -7%. Further, the “Percentage inhibition (%)” value in [2] (1 μM) is −39%; in assay [2] (10 μM), −372%. For the same molecule, the “% Inhibition of Specific Binding” value stood at 4% with KV channel, 54% in [4] and 5% in the assay with BZD (central).
